Experimental data taken from patent US20030045480A1, “Method of treating hyperresorptive bone disorders” (priority 2001, published 2003).
pIC50: −log10 of the molar value.

Molecular target: Src Kinase (p60c-Src) (Homo sapiens, UniProt P12931)
Assay: General Assay Method for Src-Kinase (DELFIA time-resolved fluorometry, poly(Glu,Tyr) substrate)
Format: biochemical
Conditions: Src kinase 1:8000, 100 μM ATP, 15 min. at room temp; read-out: Activity (uMol. Delfia assay. IC50)
Experimental: The compounds 1-25 above were assayed for activity with respect to the Src protein tyrosine kinase by the fluorometric method described in Measurement of the Protein Tyrosine Kinase Activity of c-Src Using Time-Resolved Fluorometry of Europium Chelates, Braunwalder, A. F. et al., Analytical Biochemistry 238, 159-164 (1996), the disclosure of which is incorporated herein by reference, using the materials and procedures further specified below.
General Assay Method for Src-Kinase:
Costar 384 Clear, non-treated, high-binding plates
Sigma poly(Glu, Tyr) 4:1, Ave. MW 35,000
Sigma ATP (1.5 mM Stock Soln. in H2O)
MES Buffer: 30 mM MES (pH 6.8)
MBI Buffer: (MES+0.4 mg/ml BSA+0.003% IGEPAL)
Wallac Eu-labelled anti-phosphotyrosine Antibody (CR04-100)
Antibody Dilution Buffer: (MES+3%BSA)
DELFIA® Wash Solution (TTBS):
DELFIA Enhancement Solution
The plates were coated with 0.1 mg/ml poly(Glu, Tyr) in Coating Solution, 35 μl/well. It was let stand overnight at room temp. The plates were then washed 3 times with MES (100 μl/wash).
The reaction was stopped by aspiration, and then washed 3 times with MES (100 μl/wash). 20 μl 0.4 ng/μl of antibody in Antibody Dilution Buffer (final=8 ng Ab/well) was added and then incubated for 30 min. at RT. The antibody solution was removed by aspiration and then washed 3 times with 1X DELFIA Wash Solution. 20 μl DELFIA Enhancement Solution was added and the value was read.

Chain of Src Kinase (p60c-Src) (P12931 whole entry): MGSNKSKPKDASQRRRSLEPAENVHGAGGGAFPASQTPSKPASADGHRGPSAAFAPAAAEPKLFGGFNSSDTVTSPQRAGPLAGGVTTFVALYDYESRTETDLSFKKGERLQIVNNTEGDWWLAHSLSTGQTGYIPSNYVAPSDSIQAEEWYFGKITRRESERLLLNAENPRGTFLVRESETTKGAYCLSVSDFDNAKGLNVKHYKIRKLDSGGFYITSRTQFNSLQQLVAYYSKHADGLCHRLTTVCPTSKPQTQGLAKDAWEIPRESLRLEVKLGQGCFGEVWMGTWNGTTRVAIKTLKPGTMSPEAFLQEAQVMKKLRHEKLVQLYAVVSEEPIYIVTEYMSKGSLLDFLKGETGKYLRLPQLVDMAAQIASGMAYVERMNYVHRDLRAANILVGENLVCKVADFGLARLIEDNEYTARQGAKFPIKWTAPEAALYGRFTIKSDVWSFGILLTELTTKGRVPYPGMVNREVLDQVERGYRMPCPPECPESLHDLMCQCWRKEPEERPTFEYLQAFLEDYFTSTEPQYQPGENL

For CNCC(=O)N1CCCN(c2ccc(NC(=O)NCC3CCC(C(N)=O)CC3)cc2NC(=O)c2cc3ccccc3o2)CC1 (stereo not shown) [Example 17], the pIC50 was 4.43.

CC(C)C(NS(=O)(=O)c1cc(NC(=O)C2CCNCC2)ccc1N1CCC(Cc2ccccc2)CC1)C(N)=O (stereo not shown) [Example 23] was tested, and the pIC50 was 4.92.

For NC(=O)C(Cc1ccc2ccccc2c1)NC(=O)Nc1ccc(N2CCCN(C(=O)C3CCNCC3)CC2)c(NC(=O)c2cc3ccccc3o2)c1 (stereo not shown) [Example 14, 4-(Piperidin-4-yl)carbonyl-1-{[2-(2-benzofuranoyl)amino]-4-[1-aminocarbonyl-2-(2-naphthyl)ethylamino]carbonylaminophenyl}homopiperazine], the pIC50 was 5.56.

Work on NC(=O)C(CC1CCCCC1)NC(=O)Nc1ccc(N2CCCN(C(=O)C3CCNCC3)CC2)c(NC(=O)CCCc2ccccc2)c1 (stereo not shown) [Example 20] yielded a pIC50 of 4.55.

In the case of NC(=O)C(Cc1ccc2ccccc2c1)NC(=O)Nc1ccc(N2CCN(C3CCCCC3)CC2)c(NC(=O)/C=C/c2ccccc2)c1 (stereo not shown) [Example 9, 4-Cyclohexyl-1-{[2-cinnamoylamino]-4-[1-aminocarbonyl-2-(2-naphthyl)ethylamino]carbonylaminophenyl}piperazine], the pIC50 was 4.77.

Molecule NC(=O)C1CCC(CNS(=O)(=O)c2cc(NC(=O)C3CCCN3)ccc2N2CCC(Cc3ccccc3)CC2)CC1 (stereo not shown) [Example 25, N-[[(4-Aminocarbonyl)cyclohexylmethyl]amino]-[2-[(4-phenylmethyl)piperidin-1-yl]-5-[(2-pyrrolidinocarbonyl)-amino]phenyl]sulfonamide] has a pIC50 of 4.56.

CC(C)(C)c1ccc(Oc2cccc(CN(C(=O)c3ccc(C(=N)N)cc3)C(Cc3c[nH]c4ccccc34)C(=O)NCC(N)=O)c2)cc1 (stereo not shown) [Example 6, 4-amidinobenzoyl-(3-(4-tert-butylphenoxy)phenoxybenzyl)-tryptanyl-glycyl-amide] showed a pIC50 of 4.85.

CC(C)(C)c1ccc(Oc2cccc(CN(C(=O)c3cccc(C(=N)N)c3)C(Cc3ccc(N)cc3)C(=O)NCC(N)=O)c2)cc1 (stereo not shown) [Example 3, N-[3-Amidinobenzoyl]-N-[3-(4-tert-butylphenoxy)benzyl]-4-aminophenylalanyl-glycyl-amide] gave a pIC50 of 4.35.

For NC(=O)C(CCc1ccccc1)NC(=O)Nc1ccc(N2CCN(C3CCCCC3)CC2)c(NC(=O)CCCc2ccccc2)c1 (stereo not shown) [Example 11, 4-Cyclohexyl-1-{[2-(4-phenylbutanoyl)amino]-4-[(1-aminocarbonyl-3-phenyl)propylamino]carbonylaminophenyl}piperazine], the pIC50 was 4.96.

Molecule NC(=O)C(Cc1ccc2ccccc2c1)NC(=O)Nc1ccc(N2CCCN(C(=O)C3CCNCC3)CC2)c(NC(=O)CCCc2ccccc2)c1 (stereo not shown) [Example 13, 4-(Piperidin-4-yl)carbonyl-1-{[2-(4-phenylbutanoyl)amino]-4-[1-aminocarbonyl-2-(2-naphthyl)ethylamino]carbonylaminophenyl}homopiperazine] has a pIC50 of 4.89.

Molecule NC(=O)C(CC1CCCCC1)NC(=O)Nc1ccc(N2CCCN(C(=O)C3CCNCC3)CC2)c(NC(=O)c2cc3ccccc3o2)c1 (stereo not shown) [Example 15, 4-(Piperidin-4-yl)carbonyl-1-{[2-(2-benzofuranoyl)amino]-4-[1-aminocarbonyl-2-cyclohexylethylamino]carbonylaminophenyl}homopiperazine] has a pIC50 of 5.19.

NC(=O)C1CCC(CNC(=O)Nc2ccc(N3CCCN(C(=O)C4CCCN4)CC3)c(NC(=O)c3cc4ccccc4o3)c2)CC1 (stereo not shown) [Example 18, 4-(Pyrrolidin-2-yl)carbonyl-1-[2-[(2-benzo-furanoyl)amino]-4-[[(4-aminocarbonyl)cyclohexyl-methyl-amino]carbonylamino]phenyl] homopiperazine] gave a pIC50 of 4.72.

NC(=O)C1CCC(CNC(=O)Nc2ccc(N3CCCN(C(=O)C4CCNCC4)CC3)c(NC(=O)c3cc4ccccc4o3)c2)CC1 (stereo not shown) [Example 16] gave a pIC50 of 4.44.

CC(C)(C)c1ccc(Oc2cccc(CN(C(=O)c3cccc(C(=N)N)c3)C(CCCNC(=N)N)C(=O)NCC(N)=O)c2)cc1 (stereo not shown) [Example 5, N-[3-Amidinobenzoyl]-N-[3-(4-tert-butylphenoxy)benzyl]-arginyl-glycyl-amide] was tested, and the pIC50 was 4.90.

N=C(N)c1ccc(C(=O)N(Cc2ccc(-c3ccccc3)cc2)C(Cc2ccc(-c3ccccc3)cc2)C(=O)NCC(N)=O)cc1 (stereo not shown) [Example 7, N-[4-Amidinobenzoyl]-N-[4-biphenylmethyl]-3-(4-biphenyl)alanyl-glycyl-amide] gave a pIC50 of 4.89.

Work on NC(=O)C1CCC(CNC(=O)Nc2ccc(N3CCC(N4CCCCC4)CC3)c(NC(=O)c3cc4ccccc4o3)c2)CC1 (stereo not shown) [Example 19] yielded a pIC50 of 4.66.

CC(C)(C)c1ccc(Oc2cccc(CN(C(=O)c3cccc(C(=N)N)c3)C(CC3CCCCC3)C(=O)NCC(N)=O)c2)cc1 (stereo not shown) [Example 2, 3-amidinobenzoyl-(3-(4-tert-butylphenoxy)benzyl)-cyclohexylylalanyl-glycyl-amide] gave a pIC50 of 4.64.

With N=C(N)c1ccc(C(=O)N(Cc2cccc(Oc3ccccc3)c2)C(Cc2ccc(-c3ccccc3)cc2)C(=O)NCC(N)=O)cc1 (stereo not shown) [Example 1, N-[4-Amidinobenzoyl]-N-[3-phenoxybenzyl]-3-(4-biphenyl)-alanyl-glycyl-amide] the pIC50 was 4.66.

NC(=O)C(CCc1ccccc1)NC(=O)Nc1ccc(N2CCCN(C(=O)C3CCNCC3)CC2)c(NC(=O)CCCc2ccccc2)c1 (stereo not shown) [Example 21] was tested, and the pIC50 was 4.66.

Work on CC(C)(C)c1ccc(Oc2cccc(CN(C(=O)c3cccc(C(=N)N)c3)C(Cc3cccc4ccccc34)C(=O)NCC(N)=O)c2)cc1 (stereo not shown) [Example 4, N-[3-Amidinobenzoyl]-N-[3-(4-tert-butylphenoxy)benzyl]-1-naphthylalanyl-glycyl-amide] yielded a pIC50 of 4.74.

In the case of CC(C)C(NS(=O)(=O)c1cc(NC(=O)C2CCCN2)ccc1N1CCC(Cc2ccccc2)CC1)C(N)=O (stereo not shown) [Example 22, N-(1-Aminocarbonyl-2-methylpropyl)-2-[(4-phenylmethyl)piperidin-1-yl]-5-[(2-pyrrolidinocarbonyl)amino]phenylsulfonamide], the pIC50 was 4.85.

Molecule CC(C)C(NS(=O)(=O)c1cc(NC(=O)/C=C/c2ccccc2)ccc1N1CCN(C2CCCCC2)CC1)C(N)=O (stereo not shown) [Example 24, 1-[2-[N-(2-Aminocarbonyl-3-methylbutyl)sulfonamido]-5-[2-cinnamoylamino]]phenyl-4-cyclohexylpiperazine] has a pIC50 of 4.38.

With NC(=O)C(Cc1ccc2ccccc2c1)NC(=O)Nc1ccc(N2CCN(C3CCCCC3)CC2)c(NC(=O)CCCc2ccccc2)c1 (stereo not shown) [Example 8, 4-Cyclohexyl-1-{[2-(4-phenylbutanoyl)amino]-4-[1-aminocarbonyl-2-(2-naphthyl)ethylamino]carbonylaminophenyl}piperazine] the pIC50 was 5.07.

Work on NC(=O)C(CCc1ccccc1)NC(=O)Nc1ccc(N2CCN(C3CCCCC3)CC2)c(NC(=O)/C=C/c2ccccc2)c1 (stereo not shown) [Example 10, 4-Cyclohexyl-1-{[2-cinnamoylamino]-4-[(1-aminocarbonyl-3-phenyl)propylamino]carbonylaminophenyl}piperazine] yielded a pIC50 of 4.81.

For NC(=O)C(CC1CCCCC1)NC(=O)Nc1ccc(N2CCN(C3CCCCC3)CC2)c(NC(=O)/C=C/c2ccccc2)c1 (stereo not shown) [Example 12, 4-Cyclohexyl-1-{[2-cinnamoylamino]-4-[(1-aminocarbonyl-2-cyclohexyl)ethylamino]carbonylaminophenyl}piperazine], the pIC50 was 4.73.
